Measurements from PubChem BioAssay AID720589 (Broad Institute, 2013).

The molecules below were run on HepG2 viability, ATP luminescence (CellTiter-Glo), 72 h (assay: ATP-based viability loss in HepG2 cells – cell-based, CellTiter-Glo luminescence, cherry-pick, set 3, cytotoxicity control, dose response (AID 720589)).

Compound | AC35 [µM]
Cc1ccc(/C=N/Nc2ccnc3cc(Cl)ccc23)c(C)c1 | 5.3
O=c1cc(CN2CCN(Cc3ccccc3)CC2)c2ccc(O)c(O)c2o1 | 10.3
CN(C)c1ncnc2c1ccn2C1OC(CO)C(O)C1O (stereo not drawn) | 0.178
C[C@H]1CN([C@@H](C)CO)C(=O)c2cccc(NC(=O)c3ccc(-c4nccs4)cc3)c2O[C@@H]1CN(C)Cc1ccc(C(=O)Nc2ccccc2N)cc1 | 4.1
N#C[C@H]1[C@H](c2ccc(C#Cc3ccccc3F)cc2)[C@@H](CO)N1C(=O)C1CCCCC1 | 12.9
CC1OC(OC2CC(O)C3(CO)C4C(O)CC5(C)C(C6=CC(=O)OC6)CCC5(O)C4CCC3(O)C2)C(O)C(O)C1O (stereo not drawn) | 0.129
COc1ccc(NC(=O)N2CCCCN3[C@H](CO)[C@H](c4ccc(C#CCC(C)C)cc4)[C@H]3C2)cc1 | 8.68
COC(=O)c1ccccc1-c1c2ccc(=N)cc-2oc2cc(N)ccc12 | 10.2
C[C@@H]1CN([C@H](C)CO)C(=O)c2cc(NC(=O)c3ccccc3)ccc2O[C@@H](C)CCCCO[C@H]1CN(C)C(=O)Nc1cccc2ccccc12 | 1.54
Oc1c(C(c2ccc(Cl)cc2)N2CCCC2)cc(Cl)c2cccnc12 (stereo not drawn) | 17.3
CN(Cc1cnc2nc(N)nc(N)c2n1)c1ccc(C(=O)N[C@@H](CCC(=O)O)C(=O)O)cc1 | 0.0224
C[C@H]1CN([C@@H](C)CO)C(=O)c2cc(N(C)C)ccc2O[C@H]1CN(C)Cc1ccc(C(=O)Nc2ccccc2N)cc1 | 0.298
C[C@H]1CN([C@@H](C)CO)C(=O)c2cc(N(C)C)ccc2O[C@@H]1CN(C)Cc1ccc(C(=O)Nc2ccccc2N)cc1 | 0.975
c1ccc(Nc2nnc(-c3ccc4c(c3)OCO4)o2)cc1 | 14.3
C[C@H]1CCCCO[C@H](CN(C)Cc2ccc(C(F)(F)F)cc2)[C@@H](C)CN([C@@H](C)CO)C(=O)c2cc(NC(=O)Nc3ccccc3)ccc2O1 | 22.4
CCN(Cc1ccccc1)c1ccc(/C=N/N=C(N)N)cc1 | 4.18
COc1ccccc1NC(=O)N1CCCCN2[C@H](CO)[C@H](c3ccc(-c4cccc(C)c4)cc3)[C@H]2C1 | 12.5
C[C@@H]1CN([C@H](C)CO)C(=O)c2cccc(N(C)C)c2O[C@@H]1CN(C)Cc1ccc(C(=O)Nc2ccccc2N)cc1 | 3.05
C[C@@H]1CN([C@@H](C)CO)C(=O)c2cc(NS(=O)(=O)c3ccc(F)cc3)ccc2O[C@@H]1CN(C)Cc1ccc(C(=O)Nc2ccccc2N)cc1 | 0.354

Compound | AC35 [µM]
COc1ccc(C(CCNCc2ccc(OC(C)C)cc2)C(C)C)cc1 (stereo not drawn) | 9.44
CC(C)N1C/C(=C/c2ccsc2)C(=O)/C(=C/c2ccsc2)C1 | 11.7
CC(=O)OC1CC(OC2C(O)CC(OC3C(O)CC(OC4CCC5(C)C(CCC6C5CCC5(C)C(C7=CC(=O)OC7)CCC65O)C4)OC3C)OC2C)OC(C)C1OC1OC(CO)C(O)C(O)C1O (stereo not drawn) | 0.0996
COC1C(O)C(C)OC(OC2CCC3(C)C(CCC4C3C(O)CC3(C)C(C5=CC(=O)OC5)CCC43O)C2)C1O (stereo not drawn) | 0.204
CC(=O)OC1CC(OC2C(O)CC(OC3C(O)CC(OC4CCC5(C)C(CCC6C5CC(O)C5(C)C(C7=CC(=O)OC7)CCC65O)C4)OC3C)OC2C)OC(C)C1OC1OC(CO)C(O)C(O)C1O (stereo not drawn) | 0.285
Cc1ccc(C)c(S(=O)(=O)N2CCN(c3ncnc4sccc34)CC2)c1 | 4.76
O=C(Nc1ccc(Br)cc1)c1ccc(F)c(S(=O)(=O)N2CCN(c3ccccn3)CC2)c1 | 2.69
CCOc1ccc2nc(NC3=NC(c4ccc(OC)cc4)CC(=O)N3)nc(C)c2c1 (stereo not drawn) | 10.2
O=C(Nc1cccc(S(=O)(=O)N2CCCC2)c1)c1ccc(Cl)nc1 | 16
COc1ccc(S(=O)(=O)Nc2ccc3c(c2)C(=O)N([C@H](C)CO)C[C@@H](C)[C@@H](CN(C)Cc2ccc(C(=O)Nc4ccccc4N)cc2)O3)cc1 | 10.8
C(=N\Nc1nc2ccccc2s1)/c1ccccn1 | 4.83
O=c1ccc2[n+]([O-])c3ccc(O)cc3oc-2c1 | 5.65
C[C@@H]1CN([C@@H](C)CO)S(=O)(=O)c2ccc(C#CC(C)(C)O)cc2O[C@H]1CN(C)Cc1ccc(-c2ccccc2)cc1 | 6.19
C[C@@H]1CN([C@@H](C)CO)C(=O)c2cc(NC(=O)c3ccccc3)ccc2O[C@@H](C)CCCCO[C@H]1CN(C)C(=O)Nc1cccc2ccccc12 | 0.927
C[C@H](CO)N1C[C@H](C)[C@H](CN(C)Cc2ccc(Oc3ccccc3)cc2)Oc2ccc(NC(=O)Cn3cnnn3)cc2CC1=O | 6.59
COc1ccc(-c2cc(CNc3nc(NC(C)C)nc4cc(-c5ccccc5)sc34)on2)cc1 | 11
Cc1cccc(CN2C(=O)/C(=C\c3ccc(C(=O)NCCCN4CCN(C)CC4)cc3)Oc3ccccc32)c1 | 11.2
CCCCCCCN(c1ccccc1)[C@@H]1C[C@H]2CCCC(=O)N3CC[C@@H](C1)[C@@H]23 | 17.3
COc1ccccc1C(CCNCc1ccc(N(C)C)cc1)c1ccc(OC(C)C)cc1 (stereo not drawn) | 4.74
